From patent US20200121677A1, “SUBSTITUTED 6,7-DIHYDROPYRAZOLO[1,5-a]PYRAZINES AS NEGATIVE ALLOSTERIC MODULATORS OF MGLUR2 RECEPTORS” (Janssen Pharmaceutica NV, priority 2014, published 2020) come the findings set out here.

Series [1] concerns the target human mGlu2 receptor (Homo sapiens, UniProt Q14416). Put plainly: [35S]GTPγS binding assay, mGluR2 negative allosteric modulation (membranes from CHO cells transfected with human mGlu2 receptor, glutamate ~EC80 60 μM).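 As to all read-outs here: membranes preincubated 30 min at 30 °C with compound plus glutamate, then [35S]GTPγS (0.1 nM) incorporation measured over another 30 min at 30 °C.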 As to conditions: for IC50: GTPγS - hmGluR2 anGT pIC50, membranes with human mGlu2 receptor; for IC50 / GTPγS - hmGluR2 anGT pIC50: glutamate ~EC80 (60 μM), pIC50 = -log IC50 (M); for Emax: read-out: GTPγS - hmGluR2 anGT Emax, relative maximal effect: maximal % inhibition relative to the control glutamate response; for GTPγS - hmGluR2 anGT pIC50: membranes with human mGlu2 receptor; for GTPγS - hmGluR2 anGT Emax: relative maximal effect: maximal % inhibition relative to the control glutamate response. Background: GTPγS is a poorly hydrolysed GTP analogue; its binding reports G protein activation.

Series [2] has as its system Male Wiga Wistar rats. Nature of the series: Reversal of LY-404039-induced decrease of palpebral opening in apomorphine-challenged rats. The series is classed as in vivo, rat. As to conditions: rats, route PO (route cell empty for Co. 88 and 84); for ED50: Rattus norvegicus, read-out: ED50 APO LY-404039 (Reversal of LY-404039-induced decrease of palpebral opening in apomorphine challenged rats). The method, then: 1) Reversal of LY-404039-Induced Decrease of Palpebral Opening in Apomorphine-Challenged Rats.
Male Wiga Wistar rats (Crl:WI; Charles River Germany; 220±40 g) were housed under standard laboratory conditions (21±2° C.; 50-65% relative humidity; light-dark cycle set at 12 h; lights on at 6.00 h) and fasted overnight prior to the start of the experiments (tap water remained available ad libitum). During the test period, they were housed in individual cages. Palpebral opening was scored every 5 min over the first hour after injection of apomorphine (1.0 mg/kg, i.v.) in animals either pretreated or not pretreated with LY-404039 (2.5 mg/kg, s.c.) at 1 h prior to the apomorphine injection. The animals were also pretreated with test compound or solvent at a predefined interval before apomorphine challenge. The score system was: (5) exophthalmos, (4) wide open, (3) open for three-quarters, (2) half open, (1) open for one-quarter, (0) closed. The scores for palpebral opening were cumulated over the 60-min observation period.

Series [3] concerns Wiga rats. Put plainly: Induction of mydriasis (pupil diameter, test 1 and test 2). The series is classed as in vivo, rat. The conditions noted are these: route PO; for ED50: Rattus norvegicus. How it is done:
3) Induction of Mydriasis
The pupil diameter of Wiga rats was measured with a microscopic micrometer (1 unit=1/24 mm). Criteria for drug-induced effects: pupil diameter >25 units for mydriasis (in controls: 1.9%) 1 h post-administration of the test compound (test 1) or 1, 2 or 3 h post-administration of the test compound (test 2, wherein the maximum pupil diameter over the full 3 h period is reported).

Series [4] has as its system rats. Put plainly: Reversal of the effect of the mGluR2 PAM JNJ-42153605-induced inhibition of scopolamine-induced hyperlocomotion. The series is classed as in vivo, rat. As to conditions: rats, route PO, criterion total distance >1500 cm; for ED50: Rattus norvegicus, read-out: ED50 SCOP JNJ-42153605 (Reversal of the effect of JNJ 42153605 on scopolamine-induced hyperlocomotion). The essentials: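 Rats dosed with test compound 60 min pre-recording, challenged with JNJ-42153605 (20 mg/kg, i.v.) at 30 min and scopolamine (0.16 mg/kg, i.v.) just before recording. Total distance travelled over first 30 min video-tracked under 4–8 lux. All-or-none reversal criterion: total distance >1500 cm.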

The mark [5] stands for this setting: pupil diameter >25 units, maximum over 1, 2 or 3 h post-administration, read-out: ED50 MYD Test 2 (Induction of mydriasis).
Setting [6] is: pupil diameter >25 units, maximum over 1, 2 or 3 h post-administration.

SMILES strings stand for the structures. Like-named read-outs stand apart in the source and are kept apart here.

human mGlu2 receptor, sequence (Q14416 19-872): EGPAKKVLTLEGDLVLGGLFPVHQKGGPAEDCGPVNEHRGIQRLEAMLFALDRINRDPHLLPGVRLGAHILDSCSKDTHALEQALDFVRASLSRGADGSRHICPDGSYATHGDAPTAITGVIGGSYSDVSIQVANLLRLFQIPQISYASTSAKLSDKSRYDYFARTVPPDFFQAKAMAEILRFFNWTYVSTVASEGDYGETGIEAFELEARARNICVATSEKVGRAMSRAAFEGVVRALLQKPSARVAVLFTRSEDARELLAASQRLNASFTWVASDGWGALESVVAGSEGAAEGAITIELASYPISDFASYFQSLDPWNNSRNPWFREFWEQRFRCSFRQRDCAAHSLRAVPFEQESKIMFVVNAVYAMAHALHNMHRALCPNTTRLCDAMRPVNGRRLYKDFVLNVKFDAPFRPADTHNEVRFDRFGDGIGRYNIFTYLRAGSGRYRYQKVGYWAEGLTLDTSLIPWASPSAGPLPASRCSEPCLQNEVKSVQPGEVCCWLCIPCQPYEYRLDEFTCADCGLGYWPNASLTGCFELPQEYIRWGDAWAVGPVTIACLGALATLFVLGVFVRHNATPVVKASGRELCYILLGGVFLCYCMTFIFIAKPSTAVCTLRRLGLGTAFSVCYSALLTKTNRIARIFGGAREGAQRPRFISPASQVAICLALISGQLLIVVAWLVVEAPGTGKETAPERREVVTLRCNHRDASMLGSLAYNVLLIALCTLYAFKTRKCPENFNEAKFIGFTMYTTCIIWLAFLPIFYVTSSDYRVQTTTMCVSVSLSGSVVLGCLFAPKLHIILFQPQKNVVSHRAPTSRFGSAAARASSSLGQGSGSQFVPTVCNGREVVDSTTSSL

Usually IC50 stands for the midpoint of a concentration-inhibition curve. Read a high IC50 as weaker potency in that assay. The Emax is the size of the effect at its maximum, as opposed to the concentration needed. As usually defined, the ED50 is the dose at which the effect has come halfway, by size or by number of responders. As usually defined, the melting point is the temperature of the solid-liquid transition. In turn, `C[C@H]1CN(c2ccc(C(F)(F)F)cc2)C(=O)c2c(C(=O)Nc3cccnc3)cnn21` [compound 1, (7S)-7-methyl-4-oxo-N-(3-pyridyl)-5-[4-(trifluoromethyl)phenyl]-6,7-dihydropyrazolo[1,5-a]pyrazine-3-carboxamide] yielded a melting point of 167.35 °C. In addition, in series [1], the IC50 is 1.91e-09 M and the Emax came to 111%. For the same compound, the 50% effective dose (ED50) in series [2] amounted to 0.39 mg/kg. In series [3] (setting [5]), the ED50 is > 40 mg/kg. Further, the ED50 in series [4] was found to be 0.2 mg/kg.

`Cc1cc(N2C[C@H](C)n3ncc(C(=O)Nc4cccnc4)c3C2=O)ccc1C(F)(F)F` [compound 36, (7S)-7-Methyl-5-[3-methyl-4-(trifluoromethyl)phenyl]-4-oxo-N-(3-pyridyl)-6,7-dihydropyrazolo[1,5-a]pyrazine-3-carboxamide] gave a melting point of 156.85 °C. In addition, in series [1], the IC50 was 8.51e-10 M and the maximal effect (Emax) was 111%. Besides, in series [3] (setting [5]), the ED50 came out at 20 mg/kg. For the same compound, the ED50 in series [4] was 0.2 mg/kg.

For the compound `Cc1cc(NC(=O)c2cnn3c2C(=O)N(c2ccc(Cl)c(Cl)c2)C[C@@H]3C)cc(C)n1` [compound 118], in series [1], the “GTPγS - hmGluR2 anGT pIC50” value is reported as 8.8 and the “GTPγS - hmGluR2 anGT Emax” value is listed as 105%. Further, the “ED50 APO LY-404039 (Reversal of LY-404039-induced decrease of palpebral opening in apomorphine challenged rats)” value in series [2] is reported as >0.63 mg/kg. Further, in series [3] (setting [6]), the “ED50 MYD Test 2 (Induction of mydriasis)” value is on record as 1.3 mg/kg. For the same compound, the “ED50 SCOP JNJ-42153605 (Reversal of the effect of JNJ 42153605 on scopolamine-induced hyperlocomotion)” value in series [4] is reported as >0.63 mg/kg.

In turn, `C[C@H]1CN(c2ccc(C(F)(F)F)c(Cl)c2)C(=O)c2c(C(=O)Nc3cccnc3)cnn21` [compound 47] had a melting point of 140.43 °C. Besides, in series [1], the IC50 was 1.07e-09 M and the Emax is 109%. The ED50 in series [3] (setting [5]) was 32 mg/kg. Further, the ED50 in series [4] stood at 0.5 mg/kg.

Regarding `Cc1ccncc1NC(=O)c1cnn2c1C(=O)N(c1ccc(C(F)(F)F)c(C)c1)C[C@@H]2C` [compound 38], the melting point is 186.5 °C. Further, in series [1], the IC50 is 1.15e-09 M and the maximal effect (Emax) amounted to 108%. For the same compound, the ED50 in series [3] (setting [5]) was 2 mg/kg. In addition, the ED50 in series [4] worked out at 0.2 mg/kg.

Compound `C[C@H]1CN(c2ccc(C(F)(F)F)cc2)C(=O)c2c(C(=O)Nc3ccccn3)cnn21` [compound 9] had a melting point of 246.7 °C. In addition, in series [1], the IC50 was 1.12e-08 M and the Emax was found to be 103%. Further, the median effective dose (ED50) in series [2] was > 2.5 mg/kg. Further, in series [3] (setting [5]), the ED50 is > 10 mg/kg. Moreover, the 50% effective dose (ED50) in series [4] is 0.32 mg/kg.

`Cc1cc(NC(=O)c2cnn3c2C(=O)N(c2ccc(C(F)(F)F)cc2)C[C@@H]3C)ccn1` [compound 5]: the melting point was 215 °C. In series [1], the IC50 is 3.02e-09 M and the maximal response (Emax) was determined as 105%. The ED50 in series [2] was found to be 0.32 mg/kg. For the same compound, the ED50 in series [3] (pupil diameter >25 units 1 h post-administration, read-out: ED50 MYD Test 1 (Induction of mydriasis)) was > 10 mg/kg. The 50% effective dose (ED50) in series [4] stood at 1.27 mg/kg.

The compound `Cc1cc(N2C[C@H](C)n3ncc(C(=O)Nc4cncc(F)c4)c3C2=O)ccc1C(F)(F)F` [compound 39] returned a melting point of 144.6 °C. Besides, in series [1], the half-maximal inhibitory concentration (IC50) was 9.33e-10 M and the Emax came to 112%. Besides, in series [3] (setting [5]), the 50% effective dose (ED50) came out at 5 mg/kg. The ED50 in series [4] came to 0.32 mg/kg.

On to `Cc1cc(NC(=O)c2cnn3c2C(=O)N(c2ccc(C(F)(F)F)cc2)C[C@@H]3C)cc(C)n1` [compound 101], for which, in series [1], the “GTPγS - hmGluR2 anGT pIC50” value was found to be 8.57 and the “GTPγS - hmGluR2 anGT Emax” value worked out at 118%. Further, the “ED50 APO LY-404039 (Reversal of LY-404039-induced decrease of palpebral opening in apomorphine challenged rats)” value in series [2] is given as 0.79 mg/kg. For the same compound, the “ED50 MYD Test 2 (Induction of mydriasis)” value in series [3] (setting [6]) was >10 mg/kg. For the same compound, the “ED50 SCOP JNJ-42153605 (Reversal of the effect of JNJ 42153605 on scopolamine-induced hyperlocomotion)” value in series [4] worked out at 0.5 mg/kg.

In the case of `Cc1c(F)cncc1NC(=O)c1cnn2c1C(=O)N(c1ccc(C(F)(F)F)cc1)C[C@@H]2C` [compound 124, (7S)—N-(5-Fluoro-4-methyl-3-pyridyl)-7-methyl-4-oxo-5-[4-(trifluoromethyl)phenyl]-6,7-dihydropyrazolo[1,5-a]pyrazine-3-carboxamide], the melting point was found to be 194.5 °C. In series [1], the half-maximal inhibitory concentration (IC50) is 2.24e-09 M and the Emax came out at 107%. The ED50 in series [3] (setting [5]) was > 40 mg/kg. In addition, the ED50 in series [4] was 0.2 mg/kg.
